In patent publication US7888510B2, “2-′4(phenylamino)-piperidin-1-yl!-n-phenyl-acetamine derivatives and related compounds as neuropeptide Y5 (NPY5) ligands for the treatment of obesity” (Laboratorios del Dr. Esteve S.A., priority 2003, dated 2011):
Counter-ions that a name gives are not always drawn.

Legend:
rat Y5 receptor = target: T1, rat Y5 receptor (Rattus norvegicus, UniProt Q63634); assay: Neuropeptide Y5 receptor binding ([125I]-PYY displacement, membranes of transfected C6 cells); conditions: membranes of C6 cells transfected with the rat Y5 receptor, radioligand [125I]-PYY 100 pM; for inhibition at 1 µM: 10^−6 M; for IC50: 25° C., 2 h
T1 construct: expressed in transfected cells; host or cells: C6 cells (membrane preparation)
T1 sequence (Q63634 1-445): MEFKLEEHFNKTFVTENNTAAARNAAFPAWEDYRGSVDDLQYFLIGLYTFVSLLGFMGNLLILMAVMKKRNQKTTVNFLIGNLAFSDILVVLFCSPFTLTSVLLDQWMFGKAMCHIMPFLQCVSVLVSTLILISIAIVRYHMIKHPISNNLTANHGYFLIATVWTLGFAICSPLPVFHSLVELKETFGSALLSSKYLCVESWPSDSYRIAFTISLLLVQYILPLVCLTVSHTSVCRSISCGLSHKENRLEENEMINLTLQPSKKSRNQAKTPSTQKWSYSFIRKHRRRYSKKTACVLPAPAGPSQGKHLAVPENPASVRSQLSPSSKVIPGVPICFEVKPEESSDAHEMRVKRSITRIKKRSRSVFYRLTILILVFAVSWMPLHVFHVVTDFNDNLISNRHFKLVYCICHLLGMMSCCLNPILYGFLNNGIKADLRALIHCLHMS
Protocol: Neuropeptide Y5 Receptor Binding Studies:
The methods used for membrane preparation and binding are similar to those described by Y. Hu, B. T. Bloomquist et al. in Y. Hu, B. T. Bloomquist et al., The Journal of Biological Chemistry, 1996, 271, 26315-26319 with modifications. Said literature description is herewith incorporated by reference and forms part of the disclosure. Cells C6 were transfected with the rat Y5 receptor. The cells were grown under standard culture conditions in 150 cm^2 dishes and they were harvested using a rubber scraper and 10 ml PBS. The cells from five dishes were collected and centrifuged 2.500 g for 5 min (4° C.). The pellet was washed by resuspending in 3 ml buffer (Tris-HCl 10 mM, pH 7.4), homogenized using a Potter S homogenizer, 10 strokes at 600 rpm and centrifuged 48.000 g for 20 min (4° C.). The pellet was resuspended in 8 ml membrane buffer (Tris-HCl 25 mM, NaCl 120 mM, KCl 5 mM, KH2PO4 1.2 mM, CaCl2 2.5 mM, MgSO4 1.2 mM, BSA 0.15 mg/ml, Bacitracine 0.5 mg/ml, pH 7.4) and rehomogenized using the Potter S, 10 strokes at 600 rpm. The protein concentration in the incubation was […]. The radioligand was [^125I]-PYY (100 pM) in a total incubation volume of 200 μl. Following incubation at 25° C. for 2 h, the reaction was stopped by addition of 5 ml ice-cold buffer (Tris-HCl 25 mM, NaCl 120 mM, KCl 5 mM, KH2PO4 1.2 mM, CaCl2 2.5 mM, MgSO4 1.2 mM, pH 7.4) and rapid filtration in a Harvester Brandell Cell using filters (Schleicher & Schuell GF 3362) pretreated for two hours with 0.5% polyethyleneimine. Filters were washed one time with 5 ml ice-cold buffer. The filters were placed into plastic scintilation vials and 5 ml scintilation cocktail Ecoscint H were added. The quantity of radioactivity present was determined in a Wallac Winspectral 1414 counter. Non specific binding was determined in the presence of 1 μM de pNPY. All binding assays were done in triplicate.

Structure (SMILES)	inhibition at 1 µM (rat Y5 receptor) [%]	IC50 (rat Y5 receptor) [nM]	melting point [°C]
Cc1ccc(NC2CCN(CC(=O)Nc3ccc4ncccc4c3)CC2)c(CO)c1 [Example 7, 2-[4-(2-Hydroxymethyl-4-methyl-phenylamino)-piperidin-1-yl]-N-quinolin-6-yl-acetamide]	82.3		
Cc1ccc(NC2CCN(CC(=O)Nc3ccc4c(c3)-c3ccccc3C4=O)CC2)c(CO)c1 [Example 2a, 2-[4-(2-Hydroxymethyl-4-methyl-phenylamino)-piperidin-1-yl]-N-(9-oxo-9H-fluoren-3-yl)-acetamide]		80.9	152
Cc1ccc(NC2CCN(CC(=O)Nc3ccccc3)CC2)c(CO)c1 [Example 7a, 2-[4-(2-Hydroxymethyl-4-methyl-phenylamino)-piperidin-1-yl]-N-phenyl-acetamide]			128
O=C(CN1CCC(Nc2ccccc2CO)CC1)Nc1ccc(C(=O)c2ccccc2)cc1 [Example 13, N-(4-Benzoyl-phenyl)-2-[4-(2-hydroxymethyl-phenylamino)-piperidin-1-yl]-acetamide]	81.5		
Cc1ccc(NC2CCN(CC(=O)Nc3ccc4c(c3)-c3ccccc3C4O)CC2)c(CO)c1 (stereo not drawn) [Example 4a, N-(9-Hydroxy-9H-fluoren-3-yl)-2-[4-(2-hydroxymethyl-4-methyl-phenylamino)-piperidin-1-yl]-acetamide]			124
Cc1cccc(CO)c1NC1CCN(CC(=O)Nc2ccc(C(=O)c3ccccc3)cc2)CC1 [Example 15, N-(4-Benzoyl-phenyl)-2-[4-(2-hydroxymethyl-6-methyl-phenylamino)-piperidin-1-yl]-acetamide]	93.2		
O=C(CN1CCC(Nc2ccccc2CO)CC1)Nc1ccc2c(c1)CCC2=O			138 to 140
CCn1c2ccccc2c2cc(NC(=O)CN3CCC(Nc4c(C)cccc4CO)CC3)ccc21 [Example 1a, N-(9-Ethyl-9H-carbazol-3-yl)-2-[4-(2-hydroxymethyl-6-methyl-phenylamino)-piperidin-yl]acetamide dihydrochloride]		50	
Cc1cccc(CO)c1NC1CCN(CC(=O)Nc2ccc3c(c2)-c2ccccc2C3O)CC1 (stereo not drawn) [Example 5a, N-(9-Hydroxy-9H-fluoren-3-yl)-2-[4-(2-hydroxymethyl-6-methyl-phenylamino)-piperidin-1-yl]-acetamide]		40.1	133
Cc1cccc(CO)c1NC1CCN(CC(=O)Nc2ccc3c(c2)-c2ccccc2C3=O)CC1 [Example 3a, 2-[4-(2-Hydroxymethyl-6-methyl-phenylamino)-piperidin-1-yl]-N-(9-oxo-9H-fluoren-3-yl)-acetamide]		36.3	113
Cc1ccc(NC2CCN(CC(=O)Nc3ccc(C(=O)c4ccccc4)cc3)CC2)c(CO)c1 [Example 14, N-(4-Benzoyl-phenyl)-2-[4-(2-hydroxymethyl-4-methyl-phenylamino)-piperidin-1-yl]-acetamide]	88.9		
Cc1cccc(CO)c1NC1CCN(CC(=O)Nc2cnc3ccccc3c2)CC1 [Example 9, 2-[4-(2-Hydroxymethyl-6-methyl-phenylamino)-piperidin-1-yl]-N-quinolin-3-yl-acetamide]	80.4		
Cc1cccc(CO)c1NC1CCN(CC(=O)Nc2ccc3ncccc3c2)CC1 [Example 11, 2-[4-(2-Hydroxymethyl-6-methyl-phenylamino)-piperidin-1-yl]-N-quinolin-6-yl-acetamide]	73.9		
COC(=O)c1ccccc1NC1CCN(CC(=O)Nc2ccc3c(c2)-c2ccccc2C3=O)CC1.Cl			258
Cc1ccc(NC2CCN(CC(=O)Nc3cnc4ccccc4c3)CC2)c(CO)c1 [Example 5, 2-[4-(2-Hydroxymethyl-4-methyl-phenylamino)-piperidin-1-yl]-N-quinolin-3-yl-acetamide]	86.2		
